Data: patent publication US11780821B2, “Inhibitors of fibroblast activation protein” (Praxis Biotech LLC, priority 2017, dated 2023)
pIC50: −log10 of the molar value. Like-named read-outs stand apart in the source and are kept apart here.

How the values were obtained:
Assay type in all cases: biochemical
[1] = target: T1, recombinant human DPP9 (rhDPP9) (Homo sapiens, UniProt Q86TI2); test: DPP9 enzymatic activity assay; conditions: H-Gly-Pro-AMC substrate
T1 construct: purchased R&S system (so in the source)
Description: (§1) 7-Amino-4-Methylcoumarin (AMC) release was detected by measuring fluorescence at Ex/Em 380/460 nm using a Multifunction Microplate Reader (Synergy 4, Biotek). All measurements were carried out in triplicate.

[2] = target: T2, circulating FAPα from human plasma (Homo sapiens, UniProt Q12884); test: Ex vivo inhibition of circulating FAPα activity from human plasma
T2 construct: from tissue; host or cells: human plasma (EDTA-K2)
T2 sequence (Q12884 24-760 limits assumed): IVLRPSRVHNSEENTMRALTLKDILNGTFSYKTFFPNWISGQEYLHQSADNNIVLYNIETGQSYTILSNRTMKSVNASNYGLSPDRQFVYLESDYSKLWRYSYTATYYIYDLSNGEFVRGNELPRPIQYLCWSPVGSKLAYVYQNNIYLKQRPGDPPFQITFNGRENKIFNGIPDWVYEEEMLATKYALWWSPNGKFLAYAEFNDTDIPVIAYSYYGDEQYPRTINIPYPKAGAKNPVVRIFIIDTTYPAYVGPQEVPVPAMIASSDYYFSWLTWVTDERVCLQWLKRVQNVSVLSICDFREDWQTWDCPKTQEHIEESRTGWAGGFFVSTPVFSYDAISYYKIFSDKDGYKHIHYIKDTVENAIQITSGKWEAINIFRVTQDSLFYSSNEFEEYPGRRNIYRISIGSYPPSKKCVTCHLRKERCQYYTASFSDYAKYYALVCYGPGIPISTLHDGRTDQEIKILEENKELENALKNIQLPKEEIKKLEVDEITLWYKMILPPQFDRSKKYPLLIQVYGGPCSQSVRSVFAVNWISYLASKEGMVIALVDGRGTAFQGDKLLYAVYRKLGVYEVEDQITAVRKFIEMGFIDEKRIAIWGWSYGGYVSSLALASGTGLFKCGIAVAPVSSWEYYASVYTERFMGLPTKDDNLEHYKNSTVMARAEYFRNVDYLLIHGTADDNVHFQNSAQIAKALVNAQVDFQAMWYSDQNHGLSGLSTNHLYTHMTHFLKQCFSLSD
Description: Human blood was obtained from healthy young volunteers. Blood samples were collected in tubes coated with EDTA-K2 by venipuncture method, mixed gently, then kept on ice and centrifuged at 2,500×g for 15 minutes at 4° C. After plasma separation, samples were stored at −80° C. in aliquots of 300 μL. […] Exemplary compounds were allowed to interact with the enzyme for 15 minutes at 37° C. After pre-incubation, 50 μl of 200 μM PRXS-AMC substrate were added to the all mixtures. All reactions were carried out for 1 h at 37° C. protected from light. AMC release was detected measuring fluorescence at an excitation/emission wavelength of 380/460 nm using a Multifunction Microplate Reader. All measurements were carried out as single point.

[3] = target: T3, recombinant human DPPIV (rhDPPIV) (Homo sapiens, UniProt P27487); test: DPPIV enzymatic activity assay; conditions: H-Gly-Pro-pNA substrate
T3 construct: purchased R&S system (so in the source)

[4] = target: T4, recombinant human PREP (rhPREP) (Homo sapiens, UniProt P48147); test: PREP enzymatic activity assay; conditions: Z-Gly-Pro-AMC substrate
T4 sequence (P48147 1-710): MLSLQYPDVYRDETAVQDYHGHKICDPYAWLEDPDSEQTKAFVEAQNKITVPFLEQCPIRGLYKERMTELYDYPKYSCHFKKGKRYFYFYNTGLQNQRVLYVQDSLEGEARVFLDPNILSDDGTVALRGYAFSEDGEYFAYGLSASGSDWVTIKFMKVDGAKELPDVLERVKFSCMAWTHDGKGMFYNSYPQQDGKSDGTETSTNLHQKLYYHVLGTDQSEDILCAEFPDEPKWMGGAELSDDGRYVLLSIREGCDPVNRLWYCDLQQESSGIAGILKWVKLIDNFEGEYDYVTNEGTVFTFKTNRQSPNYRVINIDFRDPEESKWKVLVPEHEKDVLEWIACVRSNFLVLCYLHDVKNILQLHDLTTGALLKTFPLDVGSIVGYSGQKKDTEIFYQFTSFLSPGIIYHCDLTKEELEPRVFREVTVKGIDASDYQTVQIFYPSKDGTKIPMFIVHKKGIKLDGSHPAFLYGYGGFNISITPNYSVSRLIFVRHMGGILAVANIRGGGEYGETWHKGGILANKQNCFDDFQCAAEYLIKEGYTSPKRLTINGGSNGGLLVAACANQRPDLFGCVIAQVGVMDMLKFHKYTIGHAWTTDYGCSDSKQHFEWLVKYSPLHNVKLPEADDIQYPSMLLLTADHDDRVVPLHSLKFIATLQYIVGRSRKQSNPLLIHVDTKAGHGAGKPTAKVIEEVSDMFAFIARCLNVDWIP
Description: as §1

[5] = human plasma, PRXS-AMC substrate, read-out: FAPα activity in human plasma (PRXS-AMC) IC50

T1 sequence (Q86TI2 whole entry): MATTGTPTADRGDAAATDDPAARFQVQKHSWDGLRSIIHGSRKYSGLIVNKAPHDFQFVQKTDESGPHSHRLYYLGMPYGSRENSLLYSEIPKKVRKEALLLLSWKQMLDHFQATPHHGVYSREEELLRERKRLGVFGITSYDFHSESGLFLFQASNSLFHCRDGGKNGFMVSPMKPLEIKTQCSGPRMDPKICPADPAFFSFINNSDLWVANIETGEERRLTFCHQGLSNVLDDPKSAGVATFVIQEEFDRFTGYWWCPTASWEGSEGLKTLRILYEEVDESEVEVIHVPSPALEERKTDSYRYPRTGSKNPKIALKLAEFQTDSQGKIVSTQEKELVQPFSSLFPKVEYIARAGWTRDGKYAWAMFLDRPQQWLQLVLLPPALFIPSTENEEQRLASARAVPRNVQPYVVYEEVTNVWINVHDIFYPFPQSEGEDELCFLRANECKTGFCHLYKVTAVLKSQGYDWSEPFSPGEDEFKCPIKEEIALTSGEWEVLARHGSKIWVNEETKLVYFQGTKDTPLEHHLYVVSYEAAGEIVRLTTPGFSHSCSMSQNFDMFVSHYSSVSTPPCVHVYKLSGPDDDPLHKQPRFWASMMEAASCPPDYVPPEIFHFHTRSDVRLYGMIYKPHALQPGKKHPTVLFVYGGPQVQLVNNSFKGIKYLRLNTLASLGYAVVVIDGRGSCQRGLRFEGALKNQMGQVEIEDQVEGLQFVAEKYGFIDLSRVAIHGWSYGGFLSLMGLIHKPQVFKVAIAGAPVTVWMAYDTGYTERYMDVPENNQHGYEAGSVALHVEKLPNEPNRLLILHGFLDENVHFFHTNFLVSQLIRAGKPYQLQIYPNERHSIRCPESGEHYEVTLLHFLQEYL
T3 sequence (P27487 whole entry): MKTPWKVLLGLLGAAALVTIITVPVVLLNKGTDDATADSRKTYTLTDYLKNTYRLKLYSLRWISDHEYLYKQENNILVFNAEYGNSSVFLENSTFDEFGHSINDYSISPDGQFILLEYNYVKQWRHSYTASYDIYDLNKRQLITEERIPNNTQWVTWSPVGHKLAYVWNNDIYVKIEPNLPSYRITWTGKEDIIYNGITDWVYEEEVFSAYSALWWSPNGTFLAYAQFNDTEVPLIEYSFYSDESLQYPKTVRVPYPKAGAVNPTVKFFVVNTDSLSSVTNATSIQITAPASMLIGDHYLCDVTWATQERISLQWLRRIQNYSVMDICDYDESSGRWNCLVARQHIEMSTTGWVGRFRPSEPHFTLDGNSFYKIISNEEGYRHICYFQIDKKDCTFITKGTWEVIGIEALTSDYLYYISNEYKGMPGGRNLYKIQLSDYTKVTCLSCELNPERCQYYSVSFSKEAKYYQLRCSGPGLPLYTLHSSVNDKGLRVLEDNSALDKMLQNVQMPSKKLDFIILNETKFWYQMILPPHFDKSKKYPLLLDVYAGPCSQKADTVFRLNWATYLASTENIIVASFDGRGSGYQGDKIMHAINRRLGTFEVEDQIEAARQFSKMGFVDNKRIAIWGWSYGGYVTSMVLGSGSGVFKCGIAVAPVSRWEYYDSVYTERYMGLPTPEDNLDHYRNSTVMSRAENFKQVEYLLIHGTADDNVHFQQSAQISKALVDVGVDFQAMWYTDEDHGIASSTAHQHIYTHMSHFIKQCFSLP

Row | pIC50 [1] | pIC50 [2, 5] | pIC50 [3] | pIC50 [4] | SMILES | pIC50 [2]
1 | 5.00 to 6.00 | > 6.00 | 5.00 to 6.00 | < 5.00 | N#C[C@@H]1CC(F)(F)CN1C(=O)CNC(=O)c1ccncc1N1CCOCC1 [Compound 88, N-[2-[(2S)-2-cyano-4,4-difluoro-pyrrolidin-1-yl]-2-oxo-ethyl]-3-morpholino-pyridine-4-carboxamide] | 
2 | < 5.00 | > 6.00 | < 5.00 | < 5.00 | N#C[C@@H]1CC(F)(F)CN1C(=O)CNC(=O)c1ccncc1-c1cc(Cl)ccc1F [Compound 54, (S)-3-(5-chloro-2-fluorophenyl)-N-(2-(2-cyano-4,4-difluoropyrrolidin-1-yl)-2-oxoethyl)isonicotinamide] | 
3 | 5.00 to 6.00 | > 6.00 | 5.00 to 6.00 | 5.00 to 6.00 | N#C[C@@H]1CC(F)(F)CN1C(=O)CNC(=O)c1c[nH]c(=O)c2ccc(F)cc12 [Compound 26, (S)—N-(2-(2-cyano-4,4-difluoropyrrolidin-1-yl)-2-oxoethyl)-6-fluoro-1-oxo-1,2-dihydroisoquinoline-4-carboxamide] | 
4 | > 6.00 | > 6.00 | < 5.00 | 5.00 to 6.00 | N#C[C@@H]1CC(F)(F)CN1C(=O)CNC(=O)c1ccncc1Cc1ccccc1 [Compound 50, (S)-3-benzyl-N-(2-(2-cyano-4,4-difluoropyrrolidin-1-yl)-2-oxoethyl)isonicotinamide] | 
5 | < 5.00 | > 6.00 | < 5.00 | 5.00 to 6.00 | C=Cc1cnccc1C(=O)NCC(=O)N1CC(F)(F)C[C@H]1C#N [Compound 40, (S)—N-(2-(2-cyano-4,4-difluoropyrrolidin-1-yl)-2-oxoethyl)-3-vinylisonicotinamide] | 
6 | < 5.00 | > 6.00 | < 5.00 | < 5.00 | Cn1ncc2c(-c3cnccc3C(=O)NCC(=O)N3CC(F)(F)C[C@H]3C#N)cccc21 [Compound 87, (S)—N-(2-(2-cyano-4,4-difluoropyrrolidin-1-yl)-2-oxoethyl)-3-(1-methyl-1H-indazol-4-yl)isonicotinamide] | 
7 | 5.00 to 6.00 | > 6.00 | 5.00 to 6.00 | 5.00 to 6.00 | N#C[C@@H]1CC(F)(F)CN1C(=O)CNC(=O)c1c[nH]c(=O)c2ccccc12 [Example 1, (S)—N-(2-(2-cyano-4,4-difluoropyrrolidin-1-yl)-2-oxoethyl)-1-oxo-1,2-dihydroisoquinoline-4-carboxamide] | 
8 | 5.00 to 6.00 | > 6.00 | < 5.00 | < 5.00 | N#C[C@@H]1CC(F)(F)CN1C(=O)CNC(=O)c1c[nH]c(=O)c(-c2ccccc2)c1 [Compound 14, (S)—N-(2-(2-cyano-4,4-difluoropyrrolidin-1-yl)-2-oxoethyl)-6-oxo-5-phenyl-1,6-dihydropyridine-3-carboxamide] | 

Row | SMILES | pIC50 [1] | pIC50 [2, 5] | pIC50 [3] | pIC50 [4] | pIC50 [2]
9 | N#C[C@@H]1CC(F)(F)CN1C(=O)CNC(=O)c1c[nH]c(=O)cc1-c1ccc(F)cc1 [Compound 109, (S)—N-(2-(2-cyano-4,4-difluoropyrrolidin-1-yl)-2-oxoethyl)-4-(4-fluorophenyl)-6-oxo-1,6-dihydropyridine-3-carboxamide] | 5.00 to 6.00 | > 6.00 | 5.00 to 6.00 | < 5.00 | 
10 | N#C[C@@H]1CC(F)(F)CN1C(=O)CNC(=O)c1ccncc1-c1cc(F)cc(F)c1 [Compound 47, (S)—N-(2-(2-cyano-4,4-difluoropyrrolidin-1-yl)-2-oxoethyl)-3-(3,5-difluorophenyl)isonicotinamide] | < 5.00 |  | < 5.00 | < 5.00 | > 6.00
11 | N#C[C@@H]1CC(F)(F)CN1C(=O)CNC(=O)c1ccncc1C1=CCNCC1 [Compound 105, (S)—N-(2-(2-cyano-4,4-difluoropyrrolidin-1-yl)-2-oxoethyl)-1′,2′,3′,6′-tetrahydro-[3,4′-bipyridine]-4-carboxamide 2,2,2-trifluoroacetate] | < 5.00 | > 6.00 | < 5.00 | < 5.00 | 
12 | N#C[C@@H]1CC(F)(F)CN1C(=O)CNC(=O)c1ccncc1C1CC1 [Compound 24, (S)—N-(2-(2-cyano-4,4-difluoropyrrolidin-1-yl)-2-oxoethyl)-3-cyclopropylisonicotinamide] | 5.00 to 6.00 | > 6.00 | < 5.00 | 5.00 to 6.00 | 
13 | C=C(c1ccccc1)c1cnccc1C(=O)NCC(=O)N1CC(F)(F)C[C@H]1C#N [Compound 122, (S)—N-(2-(2-cyano-4,4-difluoropyrrolidin-1-yl)-2-oxoethyl)-3-(1-phenylvinyl)isonicotinamide] | < 5.00 |  | < 5.00 | < 5.00 | 
14 | N#C[C@@H]1CC(F)(F)CN1C(=O)CNC(=O)c1ccncc1-c1ccc(F)cc1 [Compound 52, (S)—N-(2-(2-cyano-4,4-difluoropyrrolidin-1-yl)-2-oxoethyl)-3-(4-fluorophenyl)isonicotinamide] | < 5.00 | > 6.00 | < 5.00 | < 5.00 | 
15 | N#C[C@@H]1CC(F)(F)CN1C(=O)CNC(=O)c1ccncc1-c1ccccc1 [Compound 13, (S)—N-(2-(2-cyano-4,4-difluoropyrrolidin-1-yl)-2-oxoethyl)-3-phenylisonicotinamide] | 5.00 to 6.00 | > 6.00 | < 5.00 | < 5.00 | 
